Test results taken from PubChem BioAssay (NCI).
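Compound exposure: 48 hours, 5 concentrations, 96-well plates. At the GI50, growth is halved. At the TGI there is no net growth.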

How the values were obtained:
Assay in all cases: NCI tumour cell line growth inhibition, 48 h
[1] = tested on: SF-268 CNS
[2] = tested on: RXF 393 renal
[3] = tested on: NCI-H522 lung
[4] = tested on: RPMI-8226 leukemia
[5] = tested on: SK-MEL-28 melanoma
[6] = tested on: SW-620 colon
[7] = tested on: A498 renal
[8] = tested on: HCT-15 colon
[9] = tested on: K-562 leukemia
[10] = tested on: ACHN renal
[11] = tested on: HS 578T breast
[12] = tested on: UACC-257 melanoma
[13] = tested on: NCI-H226 lung
[14] = tested on: LOX IMVI melanoma
[15] = tested on: UACC-62 melanoma
[16] = tested on: MDA-MB-468 breast
[17] = tested on: MDA-MB-435
[18] = tested on: SR leukemia
[19] = tested on: SNB-19 CNS
[20] = tested on: M14 melanoma
[21] = tested on: MALME-3M melanoma
[22] = tested on: CCRF-CEM leukemia
[23] = tested on: CAKI-1 renal
[24] = tested on: T-47D breast
[25] = tested on: OVCAR-4 ovarian
[26] = tested on: NCI/ADR-RES ovarian
[27] = tested on: U251 CNS
[28] = tested on: UO-31 renal
[29] = tested on: HOP-62 NSCLC
[30] = tested on: OVCAR-8 ovarian
[31] = tested on: HOP-92 NSCLC
[32] = tested on: MOLT-4 leukemia
[33] = tested on: HL-60(TB) leukemia
[34] = tested on: OVCAR-5 ovarian
[35] = tested on: SNB-75 CNS
[36] = tested on: HCC-2998 colon
[37] = tested on: MCF7 breast
[38] = tested on: SK-OV-3 ovarian
[39] = tested on: A549 NSCLC
[40] = tested on: MDA-MB-231 breast
[41] = tested on: HT29 colon
[42] = tested on: IGROV1 ovarian
[43] = tested on: NCI-H460 lung
[44] = tested on: DU-145 prostate
[45] = tested on: SF-539 CNS
[46] = tested on: SK-MEL-5 melanoma
[47] = tested on: BT-549 breast
[48] = tested on: TK-10 renal
[49] = tested on: 786-0 renal
[50] = tested on: SK-MEL-2 melanoma
[51] = tested on: SN12C renal
[52] = tested on: KM12 colon
[53] = tested on: OVCAR-3 ovarian
[54] = tested on: SF-295 CNS
[55] = tested on: EKVX NSCLC
[56] = tested on: HCT-116 colon
[57] = tested on: NCI-H23 lung
[58] = tested on: PC-3 prostate
[59] = tested on: COLO 205 colon

For `CC(=O)N1CCN(Cc2ccc3c(NNC(=O)c4cnccn4)nc4cc(F)ccc4n23)CC1`, which GI50 [1] is on record?
Its GI50 is 0.609 µM.

What about the TGI [1] of the same compound?
The TGI was greater than 100 µM.

And the GI50 [2]?
The GI50 was 1.45 µM.

And the TGI [2]?
Its TGI is 12.4 µM.

What about the GI50 [3] of the same compound?
Its GI50 is 1.26 µM.

What about the TGI [3] of the same compound?
The TGI was 15.7 µM.

And the GI50 [4]?
Its GI50 is 0.823 µM.

What about the TGI [4] of the same compound?
Its TGI is greater than 39.7 µM.

What about the GI50 [5] of the same compound?
Its GI50 is 0.624 µM.

What about the TGI [5] of the same compound?
Its TGI is 31.6 µM.

What about the GI50 [6] of the same compound?
The GI50 was 0.633 µM.

What about the TGI [6] of the same compound?
The TGI was greater than 63 µM.

What about the GI50 [7] of the same compound?
Its GI50 is 22.7 µM.

What about the TGI [7] of the same compound?
The TGI was 37.8 µM.

And the GI50 [8]?
Its GI50 is 0.197 µM.

What about the TGI [8] of the same compound?
Its TGI is 19 µM.

And the GI50 [9]?
Its GI50 is 0.753 µM.

What about the TGI [9] of the same compound?
The TGI was 33.5 µM.

And the GI50 [10]?
Its GI50 is 0.311 µM.

What about the TGI [10] of the same compound?
The TGI was 12.3 µM.

And the GI50 [11]?
The GI50 was 13.2 µM.

What about the TGI [11] of the same compound?
The TGI was greater than 100 µM.

And the GI50 [12]?
The GI50 was 1.68 µM.

What about the TGI [12] of the same compound?
Its TGI is 10.5 µM.

What about the GI50 [13] of the same compound?
The GI50 was 0.742 µM.

And the TGI [13]?
Its TGI is 11.2 µM.

What about the GI50 [14] of the same compound?
The GI50 was 0.371 µM.

And the TGI [14]?
Its TGI is 3.09 µM.

What about the GI50 [15] of the same compound?
Its GI50 is 0.435 µM.

What about the TGI [15] of the same compound?
The TGI was 2.21 µM.

And the GI50 [16]?
The GI50 was 0.525 µM.

What about the TGI [16] of the same compound?
Its TGI is 3.39 µM.

What about the GI50 [17] of the same compound?
The GI50 was 1.51 µM.

And the TGI [17]?
Its TGI is greater than 100 µM.

What about the GI50 [18] of the same compound?
The GI50 was 0.389 µM.

And the TGI [18]?
Its TGI is 10.7 µM.

And the GI50 [19]?
The GI50 was 1.2 µM.

And the TGI [19]?
The TGI was greater than 100 µM.

What about the GI50 [20] of the same compound?
The GI50 was 0.333 µM.

What about the TGI [20] of the same compound?
The TGI was 2.24 µM.

What about the GI50 [21] of the same compound?
The GI50 was 1.22 µM.

What about the TGI [21] of the same compound?
The TGI was 10.9 µM.

What about the GI50 [22] of the same compound?
Its GI50 is 0.374 µM.

What about the TGI [22] of the same compound?
Its TGI is 10.6 µM.

And the GI50 [23]?
The GI50 was 0.477 µM.

And the TGI [23]?
Its TGI is 18.8 µM.

And the GI50 [24]?
Its GI50 is 1.7 µM.

What about the TGI [24] of the same compound?
Its TGI is 36.8 µM.

What about the GI50 [25] of the same compound?
Its GI50 is 0.64 µM.

And the TGI [25]?
Its TGI is 41.7 µM.

And the GI50 [26]?
Its GI50 is 1.17 µM.

What about the TGI [26] of the same compound?
Its TGI is 12.3 µM.

And the GI50 [27]?
Its GI50 is 0.505 µM.

And the TGI [27]?
The TGI was 48.7 µM.

And the GI50 [28]?
Its GI50 is 0.163 µM.

And the TGI [28]?
The TGI was 7.66 µM.

What about the GI50 [29] of the same compound?
Its GI50 is 0.41 µM.

What about the TGI [29] of the same compound?
Its TGI is 23.6 µM.

What about the GI50 [30] of the same compound?
The GI50 was 0.454 µM.

What about the TGI [30] of the same compound?
Its TGI is greater than 34.1 µM.

What about the GI50 [31] of the same compound?
Its GI50 is 0.331 µM.

And the TGI [31]?
The TGI was 14.6 µM.

What about the GI50 [32] of the same compound?
Its GI50 is 0.387 µM.

And the TGI [32]?
The TGI was 15.5 µM.

What about the GI50 [33] of the same compound?
Its GI50 is 0.461 µM.

And the TGI [33]?
The TGI was 4.54 µM.

And the GI50 [34]?
The GI50 was 1.09 µM.

And the TGI [34]?
Its TGI is 24.4 µM.

What about the GI50 [35] of the same compound?
Its GI50 is 1.39 µM.

And the TGI [35]?
The TGI was 99.3 µM.

What about the GI50 [36] of the same compound?
The GI50 was 0.96 µM.

What about the TGI [36] of the same compound?
The TGI was 19 µM.

What about the GI50 [37] of the same compound?
The GI50 was 0.898 µM.

And the TGI [37]?
The TGI was 31.2 µM.

What about the GI50 [38] of the same compound?
The GI50 was 0.492 µM.

And the TGI [38]?
Its TGI is 13.7 µM.

What about the GI50 [39] of the same compound?
The GI50 was 0.596 µM.

And the TGI [39]?
Its TGI is 17.5 µM.

What about the GI50 [40] of the same compound?
Its GI50 is 0.736 µM.

What about the TGI [40] of the same compound?
Its TGI is 25.2 µM.

And the GI50 [41]?
Its GI50 is 0.501 µM.

What about the TGI [41] of the same compound?
The TGI was 21 µM.

And the GI50 [42]?
The GI50 was 0.784 µM.

What about the TGI [42] of the same compound?
The TGI was greater than 52.9 µM.

What about the GI50 [43] of the same compound?
The GI50 was 0.408 µM.

And the TGI [43]?
The TGI was greater than 36 µM.

What about the GI50 [44] of the same compound?
The GI50 was 0.873 µM.

And the TGI [44]?
Its TGI is greater than 100 µM.

What about the GI50 [45] of the same compound?
The GI50 was 0.787 µM.

And the TGI [45]?
Its TGI is 6.04 µM.

What about the GI50 [46] of the same compound?
The GI50 was 0.605 µM.

And the TGI [46]?
The TGI was 4.98 µM.

What about the GI50 [47] of the same compound?
Its GI50 is 0.995 µM.

And the TGI [47]?
Its TGI is 19.6 µM.

What about the GI50 [48] of the same compound?
Its GI50 is 0.304 µM.

And the TGI [48]?
The TGI was 45.7 µM.

And the GI50 [49]?
Its GI50 is 0.342 µM.

What about the TGI [49] of the same compound?
The TGI was 6.55 µM.

What about the GI50 [50] of the same compound?
The GI50 was 1.28 µM.

What about the TGI [50] of the same compound?
The TGI was 11.4 µM.

And the GI50 [51]?
The GI50 was 0.864 µM.

And the TGI [51]?
Its TGI is greater than 100 µM.

What about the GI50 [52] of the same compound?
The GI50 was 0.537 µM.

What about the TGI [52] of the same compound?
Its TGI is greater than 81.3 µM.

What about the GI50 [53] of the same compound?
Its GI50 is 0.724 µM.

What about the TGI [53] of the same compound?
The TGI was 30.5 µM.

And the GI50 [54]?
The GI50 was 0.29 µM.

What about the TGI [54] of the same compound?
The TGI was 29.9 µM.

What about the GI50 [55] of the same compound?
The GI50 was 0.312 µM.

What about the TGI [55] of the same compound?
Its TGI is 10.3 µM.

And the GI50 [56]?
Its GI50 is 0.309 µM.

What about the TGI [56] of the same compound?
Its TGI is 18.8 µM.

What about the GI50 [57] of the same compound?
The GI50 was 0.909 µM.

And the TGI [57]?
The TGI was 13.2 µM.

What about the GI50 [58] of the same compound?
The GI50 was 0.525 µM.

What about the TGI [58] of the same compound?
Its TGI is greater than 52.4 µM.

And the GI50 [59]?
The GI50 was 0.436 µM.

What about the TGI [59] of the same compound?
Its TGI is 11.4 µM.
